# Laboratory results from PubChem BioAssay (NCI).
#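 Protocol summary: plate cells (96-well), add compound at 5 concentrations, incubate 48 h, interpolate endpoints linearly. TGI: concentration producing complete growth inhibition.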
# What was measured:
# Experiment in all cases: inhibition of tumour cell growth, NCI panel, 48 h
# [1] = test system: UACC-62 melanoma
# [2] = test system: UO-31 renal
# [3] = test system: M19-MEL melanoma
# [4] = test system: KM12 colon
# [5] = test system: DLD-1 colon
# [6] = test system: RXF-631 renal
# [7] = test system: MOLT-4 leukemia
# [8] = test system: CCRF-CEM leukemia
# [9] = test system: HOP-62 NSCLC
# [10] = test system: U251 CNS
# [11] = test system: DMS 114 small cell lung
# [12] = test system: K-562 leukemia
# [13] = test system: SK-MEL-2 melanoma
# [14] = test system: SNB-78 CNS
# [15] = test system: SW-620 colon
# [16] = test system: NCI-H460 lung
# [17] = test system: MALME-3M melanoma
# [18] = test system: HOP-18 NSCLC
# [19] = test system: OVCAR-4 ovarian
# [20] = test system: HOP-92 NSCLC
# [21] = test system: NCI-H226 lung
# [22] = test system: COLO 205 colon
# [23] = test system: OVCAR-3 ovarian
# [24] = test system: HCT-116 colon
# [25] = test system: HT29 colon
# [26] = test system: OVCAR-5 ovarian
# [27] = test system: TK-10 renal
# [28] = test system: EKVX NSCLC
# [29] = test system: SF-539 CNS
# [30] = test system: LOX IMVI melanoma
# [31] = test system: UACC-257 melanoma
# [32] = test system: SK-OV-3 ovarian
# [33] = test system: SN12C renal
# [34] = test system: LXFL 529 NSCLC
# [35] = test system: M14 melanoma
# [36] = test system: SK-MEL-28 melanoma
# [37] = test system: ACHN renal
# [38] = test system: NCI-H23 lung
# [39] = test system: NCI-H522 lung
# [40] = test system: CAKI-1 renal
# [41] = test system: OVCAR-8 ovarian
# [42] = test system: SK-MEL-5 melanoma
# [43] = test system: HCC-2998 colon
# [44] = test system: SF-268 CNS
# [45] = test system: SNB-19 CNS
# [46] = test system: XF 498 CNS
# [47] = test system: SNB-75 CNS
# [48] = test system: DMS 273 small cell lung
# [49] = test system: KM20L2 colon
# [50] = test system: RPMI-8226 leukemia
# [51] = test system: IGROV1 ovarian
# [52] = test system: A549 NSCLC
# [53] = test system: A498 renal
# [54] = test system: HCT-15 colon
# [55] = test system: 786-0 renal
# [56] = test system: SF-295 CNS
# [57] = test system: HL-60(TB) leukemia
# [58] = test system: RXF 393 renal
smiles,measurement,setting,value
Nc1ccc(N)c2c1C(=O)c1ccccc1C2=O,TGI,[1],> 100 µM
same,TGI,[2],> 100 µM
same,TGI,[3],> 100 µM
same,TGI,[4],> 100 µM
same,TGI,[5],> 100 µM
same,TGI,[6],> 100 µM
same,TGI,[7],> 100 µM
same,TGI,[8],> 100 µM
same,TGI,[9],> 100 µM
same,TGI,[10],> 100 µM
same,TGI,[11],> 100 µM
same,TGI,[12],> 100 µM
same,TGI,[13],> 100 µM
same,TGI,[14],> 100 µM
same,TGI,[15],> 100 µM
same,TGI,[16],> 100 µM
same,TGI,[17],> 100 µM
same,TGI,[18],> 100 µM
same,TGI,[19],> 100 µM
same,TGI,[20],> 100 µM
same,TGI,[21],> 100 µM
same,TGI,[22],> 100 µM
same,TGI,[23],> 100 µM
same,TGI,[24],> 100 µM
same,TGI,[25],> 100 µM
same,TGI,[26],> 100 µM
same,TGI,[27],94 µM
same,TGI,[28],> 100 µM
same,TGI,[29],> 100 µM
same,TGI,[30],> 100 µM
same,TGI,[31],> 100 µM
same,TGI,[32],> 100 µM
same,TGI,[33],> 100 µM
same,TGI,[34],> 100 µM
same,TGI,[35],> 100 µM
same,TGI,[36],> 100 µM
same,TGI,[37],> 100 µM
same,TGI,[38],> 100 µM
same,TGI,[39],> 100 µM
same,TGI,[40],> 100 µM
same,TGI,[41],> 100 µM
same,TGI,[42],> 100 µM
same,TGI,[43],72.9 µM
same,TGI,[44],> 100 µM
same,TGI,[45],> 100 µM
same,TGI,[46],> 100 µM
same,TGI,[47],> 100 µM
same,TGI,[48],> 100 µM
same,TGI,[49],> 100 µM
same,TGI,[50],> 100 µM
same,TGI,[51],> 100 µM
same,TGI,[52],> 100 µM
same,TGI,[53],> 100 µM
same,TGI,[54],> 100 µM
same,TGI,[55],> 100 µM
COC(=O)c1cc2cc(OC)c(OC)cc2cc(C(=O)OC)c1=O,TGI,[1],> 100 µM
same,TGI,[2],> 100 µM
same,TGI,[3],> 100 µM
same,TGI,[4],> 100 µM
same,TGI,[5],> 100 µM
same,TGI,[6],> 100 µM
same,TGI,[7],> 100 µM
same,TGI,[8],> 100 µM
same,TGI,[9],> 100 µM
same,TGI,[10],> 100 µM
same,TGI,[11],> 100 µM
same,TGI,[12],> 100 µM
same,TGI,[13],> 100 µM
same,TGI,[14],> 100 µM
same,TGI,[15],> 100 µM
same,TGI,[16],> 100 µM
same,TGI,[17],> 100 µM
same,TGI,[18],> 100 µM
same,TGI,[19],> 100 µM
same,TGI,[20],> 100 µM
same,TGI,[56],> 100 µM
same,TGI,[57],> 100 µM
same,TGI,[22],> 100 µM
same,TGI,[23],> 100 µM
same,TGI,[24],> 100 µM
same,TGI,[25],> 100 µM
same,TGI,[26],> 100 µM
same,TGI,[27],> 100 µM
same,TGI,[28],> 100 µM
same,TGI,[29],> 100 µM
same,TGI,[30],> 100 µM
same,TGI,[31],> 100 µM
same,TGI,[32],> 100 µM
same,TGI,[33],> 100 µM
same,TGI,[34],> 100 µM
same,TGI,[35],> 100 µM
same,TGI,[58],> 100 µM
same,TGI,[37],> 100 µM
same,TGI,[38],> 100 µM
same,TGI,[39],> 100 µM
same,TGI,[40],> 100 µM
same,TGI,[41],> 100 µM
same,TGI,[42],> 100 µM
same,TGI,[43],> 100 µM
same,TGI,[44],> 100 µM
same,TGI,[45],> 100 µM
same,TGI,[46],> 100 µM
same,TGI,[47],> 100 µM
same,TGI,[48],> 100 µM
same,TGI,[49],> 100 µM
same,TGI,[50],> 100 µM
same,TGI,[51],> 100 µM
same,TGI,[52],> 100 µM
same,TGI,[53],> 100 µM
same,TGI,[54],> 100 µM
same,TGI,[55],> 100 µM
